Test results taken from ChEMBL document CHEMBL4619824, “Identification of Novel Rho-Kinase-II Inhibitors with Vasodilatory Activity” (ACS Med Chem Lett, 2020).

Target: Rho-associated protein kinase 2 (Homo sapiens, UniProt O75116)
Experiment: Inhibition of ROCK2 (unknown origin) assessed as phosphorylation of MYPT1 using Tetramethylbenzidine as substrate in presence of ATP

Rho-associated protein kinase 2, sequence (O75116 whole entry): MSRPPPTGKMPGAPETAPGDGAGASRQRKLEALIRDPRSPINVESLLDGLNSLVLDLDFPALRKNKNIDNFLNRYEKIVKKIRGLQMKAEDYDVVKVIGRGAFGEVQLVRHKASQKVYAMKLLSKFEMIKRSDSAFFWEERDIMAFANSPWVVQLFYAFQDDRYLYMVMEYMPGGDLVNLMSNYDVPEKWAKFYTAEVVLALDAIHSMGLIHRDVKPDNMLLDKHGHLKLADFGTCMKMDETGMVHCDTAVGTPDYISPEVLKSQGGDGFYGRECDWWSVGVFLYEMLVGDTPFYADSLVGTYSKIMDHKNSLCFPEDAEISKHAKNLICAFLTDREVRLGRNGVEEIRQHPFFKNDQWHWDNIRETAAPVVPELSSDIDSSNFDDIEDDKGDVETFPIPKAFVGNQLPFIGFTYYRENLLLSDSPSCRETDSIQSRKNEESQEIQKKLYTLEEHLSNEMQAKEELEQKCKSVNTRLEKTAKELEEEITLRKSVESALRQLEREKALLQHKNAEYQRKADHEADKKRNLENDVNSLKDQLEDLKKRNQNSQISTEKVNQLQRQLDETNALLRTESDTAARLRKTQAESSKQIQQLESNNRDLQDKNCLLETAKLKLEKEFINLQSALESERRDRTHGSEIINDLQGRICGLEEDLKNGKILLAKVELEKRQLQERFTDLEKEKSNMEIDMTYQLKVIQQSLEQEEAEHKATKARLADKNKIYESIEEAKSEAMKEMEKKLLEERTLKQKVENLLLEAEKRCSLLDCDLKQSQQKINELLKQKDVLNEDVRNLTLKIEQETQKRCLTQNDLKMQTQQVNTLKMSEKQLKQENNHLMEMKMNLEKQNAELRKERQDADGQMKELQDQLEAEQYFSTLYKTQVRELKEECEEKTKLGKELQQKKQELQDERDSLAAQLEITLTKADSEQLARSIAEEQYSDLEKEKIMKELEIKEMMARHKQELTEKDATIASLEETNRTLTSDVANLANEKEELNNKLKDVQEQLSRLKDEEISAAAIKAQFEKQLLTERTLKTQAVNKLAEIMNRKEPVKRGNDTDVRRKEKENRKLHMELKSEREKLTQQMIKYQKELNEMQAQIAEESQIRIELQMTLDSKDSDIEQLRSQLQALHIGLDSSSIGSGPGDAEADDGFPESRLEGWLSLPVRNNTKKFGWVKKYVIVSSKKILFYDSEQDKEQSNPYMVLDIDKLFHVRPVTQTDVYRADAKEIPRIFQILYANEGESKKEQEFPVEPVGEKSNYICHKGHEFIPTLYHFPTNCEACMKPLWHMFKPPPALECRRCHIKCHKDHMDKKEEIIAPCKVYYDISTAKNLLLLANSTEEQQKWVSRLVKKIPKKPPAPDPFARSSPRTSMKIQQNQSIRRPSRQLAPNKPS

| SMILES | IC50 [nM] |
| --- | --- |
| COC(=O)c1ccc(N(C)C(C(=O)c2ccccc2)c2ccccc2)cc1 (stereo not drawn) | 9.01 |
| CCC(O)CNCc1ccnc2ccc(OC)cc12 (stereo not drawn) | 8.02 |
| COCSC(C)CCSCCO (stereo not drawn) | 8.4 |
